Measurements published in ChEMBL document CHEMBL5506068 (J Med Chem, 2024).
The source made the active and inactive calls. The rule behind the calls is not given here.

Assays:
[1] = target: Mu-type opioid receptor (Mus musculus, UniProt P42866); test: Displacement of [3H]Naloxone from mouse MOR expressed in CHO cells assessed as dissociation constant incubated for […] by radioligand binding assay; format: cell-based
[2] = target: T1, Delta-type opioid receptor (Homo sapiens, UniProt P41143); test: Displacement of [3H]diprenorphine from human DOR expressed in CHO cells assessed as dissociation constant incubated for […] by radioligand binding assay; format: cell-based
T1 sequence (P41143 whole entry): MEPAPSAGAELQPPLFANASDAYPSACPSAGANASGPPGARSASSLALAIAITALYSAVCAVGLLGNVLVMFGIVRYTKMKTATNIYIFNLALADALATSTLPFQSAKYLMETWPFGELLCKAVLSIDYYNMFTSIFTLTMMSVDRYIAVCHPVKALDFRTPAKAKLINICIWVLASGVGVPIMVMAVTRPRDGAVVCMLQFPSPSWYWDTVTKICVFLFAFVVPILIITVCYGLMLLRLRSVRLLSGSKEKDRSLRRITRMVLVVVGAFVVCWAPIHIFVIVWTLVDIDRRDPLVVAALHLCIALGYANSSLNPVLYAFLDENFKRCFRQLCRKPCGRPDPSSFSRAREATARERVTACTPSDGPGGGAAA

[3] = target: Kappa-type opioid receptor (Mus musculus, UniProt P33534); test: Displacement of [3H]diprenorphine from mouse KOR expressed in CHO cells assessed as dissociation constant incubated for […] by radioligand binding assay; format: cell-based
Chain of Kappa-type opioid receptor (P33534 whole entry): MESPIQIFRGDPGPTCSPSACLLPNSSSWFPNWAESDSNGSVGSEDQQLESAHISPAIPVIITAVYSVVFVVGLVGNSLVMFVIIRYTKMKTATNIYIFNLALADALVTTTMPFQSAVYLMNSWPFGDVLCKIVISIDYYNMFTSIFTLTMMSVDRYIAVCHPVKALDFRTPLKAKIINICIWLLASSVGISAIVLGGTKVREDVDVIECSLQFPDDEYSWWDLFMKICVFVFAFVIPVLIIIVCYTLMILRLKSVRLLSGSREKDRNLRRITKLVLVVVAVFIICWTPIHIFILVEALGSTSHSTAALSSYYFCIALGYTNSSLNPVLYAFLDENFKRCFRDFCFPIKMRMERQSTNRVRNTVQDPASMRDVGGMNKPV

[4] = test system: Mus musculus; test: Antinociception activity in male Swiss Webster mouse model assessed as increase in maximum possible effect at 10 mg/kg, sc administered as single dose measured after 20 mins in presence of morphine by warm-water tail immersion assay relative to control; format: functional
[5] = test system: Mus musculus; test: Antinociception activity in male Swiss Webster mouse model assessed as increase in maximum possible effect at 10 mg/kg, sc measured after 20 mins by warm-water tail immersion assay relative to control; format: functional
[6] = test system: Mus musculus; test: Antinociception activity in male Swiss Webster mouse model assessed as increase in maximum possible effect at 0.05 mg/kg, sc measured after 30 to 60 mins post injection by warm-water tail immersion assay; format: functional, organism-based; settings: time 30-60 min
[7] = test system: Mus musculus; test: Antinociception activity in male Swiss Webster mouse model assessed as increase in maximum possible effect at 0.05 mg/kg, sc measured after 3 to 5 hrs post injection by warm-water tail immersion assay; format: functional, organism-based; settings: time 3-5 hrs
[8] = target: T1, Delta-type opioid receptor
[9] = target: T1, Delta-type opioid receptor; test: Binding affinity to DOR (unknown origin) assessed as dissociation constant
[10] = test system: Mus musculus; test: Antinociception activity in male Swiss Webster mouse model assessed as effective dose administered as sc dose measured after 20 mins by warm-water tail immersion assay; format: functional
[11] = target: T1, Delta-type opioid receptor; test: Agonist activity at human DOR expressed in CHO cells increase in [35S]GTPgammaS binding measured after […] by scintillation counter analysis relative to SNC80; format: functional, cell-based; settings: filed as agonist
[12] = species on record: Mus musculus; test: Selectivity ratio of Kd for mouse MOR to Kd for mouse KOR
[13] = Toxicity in Swiss Webster mouse assessed as reduction in sedative effect at 0.1 to 0.5 mg/kg,sc; format: organism-based; settings: in vivo, dose 0.1-0.5 mg/kg
[14] = in vivo; settings: Swiss Webster, mouse, blood and plasma, sc, 0.1 mg/kg
Description: Ratio of drug level in Swiss Webster mouse blood to plasma at 0.1 mg/kg, sc measured after 30 mins by LC-MS/MS analysis

[15] = Toxicity in Swiss Webster mouse assessed as effect on locomotion at 0.1 to 0.5 mg/kg,sc measured after 30 mins; format: organism-based; settings: in vivo, 0.5 h, dose 0.1-0.5 mg/kg
[16] = Toxicity in Swiss Webster mouse assessed as effect on average speed at 0.1 to 0.5 mg/kg,sc measured after 30 mins; format: organism-based; settings: in vivo, 0.5 h, dose 0.1-0.5 mg/kg
[17] = Abuse liability in male Sprague-Dawley rat assessed as reduction in reinforcement at 0.32 to 10 microg/kg administered per infusion; format: toxicity; settings: in vivo, iv, dose 0.32-10 µg/kg
[18] = in vivo; settings: Swiss Webster, mouse, blood and plasma, sc, 0.1 mg/kg; remark: listed apart in the source
Description: Ratio of drug level in Swiss Webster mouse blood to plasma at 0.1 mg/kg, sc measured after 60 mins by LC-MS/MS analysis

[19] = test system: Mus musculus; test: Antinociception activity in male Swiss Webster mouse model assessed as increase in maximum possible effect at 0.1 mg/kg, sc measured after 30 to 180 mins post injection by warm-water tail immersion assay; format: functional, organism-based; settings: time 30-180 min
[20] = test system: Mus musculus; test: Antinociception activity in male Swiss Webster mouse model assessed as effect on tail withdrawal latency at 0.1 mg/kg, sc pre incubated with naltrindole for 30 mins followed by compound addition and measured after 20 mins by warm water tail immersion assay; format: functional, organism-based
[21] = Drug uptake in Swiss Webster mouse plasma at 0.1 mg/kg, sc measured after 5 mins by LC-MS/MS analysis; format: ADME, organism-based; settings: in vivo
[22] = test system: Mus musculus; test: Antinociception activity in male Swiss Webster mouse model assessed as effect on tail withdrawal latency at 0.1 mg/kg, sc pre incubated with nor-BNI for 24 hrs followed by compound addition and measured after 20 mins by warm water tail immersion assay; format: functional, organism-based
[23] = test system: Mus musculus; test: Antinociception activity in male Swiss Webster mouse model assessed as effect on tail withdrawal latency at 0.1 mg/kg, sc pre incubated with naltrindole/nor-BNI for 24 hrs followed by compound addition and measured after 20 mins by warm water tail immersion assay; format: functional, organism-based
[24] = Toxicity in Swiss Webster mouse assessed as reduction in locomotion activity administered as sc dose measured for 30 mins; format: organism-based; settings: in vivo, 0.5 h, dose 0.1-0.5 mg/kg
[25] = Abuse liability in male Sprague-Dawley rat assessed as reduction in reinforcement at 0.1 to 10 microg/kg administered per infusion; format: toxicity; settings: in vivo, iv, dose 0.1-10 µg/kg
[26] = test system: Mus musculus; test: Antinociception activity in male Swiss Webster mouse model assessed as increase in maximum possible effect at 0.1 mg/kg, sc measured after 4 to 9 hrs post injection by warm-water tail immersion assay; format: functional, organism-based; settings: time 4-9 hrs
[27] = test system: Mus musculus; test: Antinociception activity in male Swiss Webster mouse model assessed as increase in maximum possible effect at 0.1 mg/kg, sc measured after 30 to 60 mins post injection by warm-water tail immersion assay; format: functional, organism-based; settings: time 30-60 min

Chain of Mu-type opioid receptor (P42866 whole entry): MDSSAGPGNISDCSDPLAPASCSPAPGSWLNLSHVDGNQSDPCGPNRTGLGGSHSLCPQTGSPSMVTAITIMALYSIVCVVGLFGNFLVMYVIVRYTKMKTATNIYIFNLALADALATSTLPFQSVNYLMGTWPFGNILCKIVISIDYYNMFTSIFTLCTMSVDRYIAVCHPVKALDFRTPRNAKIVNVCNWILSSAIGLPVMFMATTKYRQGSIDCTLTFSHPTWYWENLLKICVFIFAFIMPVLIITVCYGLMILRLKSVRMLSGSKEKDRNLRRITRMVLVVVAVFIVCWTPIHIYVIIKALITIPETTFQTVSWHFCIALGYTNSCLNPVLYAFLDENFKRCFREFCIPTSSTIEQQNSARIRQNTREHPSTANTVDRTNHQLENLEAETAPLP

Compound	Kd [1] [nM]	Kd [2] [nM]	Kd [3] [nM]	MPE [5]	also measured
CN(C(=O)CCc1ccoc1)[C@@H]1CC[C@@]2(O)[C@H]3Cc4cccc5c4[C@@]2(CCN3CC2CC2)[C@H]1O5.Cl	43.8	891	34.5	<=40%	MPE [4]: 100%
CN(C(=O)CCc1ccco1)[C@H]1CC[C@@]2(O)[C@H]3Cc4ccc(O)c5c4[C@@]2(CCN3CC2CC2)[C@H]1O5.Cl	0.15	0.37	0.12	100%	–
Cl.O=C(CCc1ccoc1)N[C@@H]1CC[C@@]2(O)[C@H]3Cc4cccc5c4[C@@]2(CCN3CC2CC2)[C@H]1O5	17.3	749	8.37	40%	–
CN1CC[C@]23c4c5ccc(O)c4O[C@H]2[C@@H](O)C=C[C@H]3[C@H]1C5	–	–	–	–	Activity [6]: Active; Activity [7]: inactive
Cl.O=C(CCc1ccco1)N[C@H]1CC[C@@]2(O)[C@H]3Cc4ccc(O)c5c4[C@@]2(CCN3CC2CC2)[C@H]1O5	0.72	–	–	<=40%	–
CN(C(=O)/C=C/c1ccoc1)[C@H]1CC[C@@]2(O)[C@H]3Cc4ccc(O)c5c4[C@@]2(CCN3CC2CC2)[C@H]1O5.Cl	–	–	–	100%	EC50 [8]: 2.68 nM; Kd [9]: 0.64 nM; ED50 [10]: 0.037 mg/kg
CN(C(=O)/C=C/c1ccco1)[C@H]1CC[C@@]2(O)[C@H]3Cc4cccc5c4[C@@]2(CCN3CC2CC2)[C@H]1O5.Cl	16.8	68.4	0.62	80%	Emax [11]: 102%
Cl.O=C(CCc1ccco1)N[C@H]1CC[C@@]2(O)[C@H]3Cc4cccc5c4[C@@]2(CCN3CC2CC2)[C@H]1O5	53.1	90.2	73.8	<=40%	MPE [4]: 80%
Cl.O=C(CCc1ccoc1)N[C@H]1CC[C@@]2(O)[C@H]3Cc4cccc5c4[C@@]2(CCN3CC2CC2)[C@H]1O5	54.5	154	161	<=40%	Emax [11]: 93.1%; MPE [4]: 80%; Ratio [12]: 0
Cl.O=C(CCc1ccco1)N[C@@H]1CC[C@@]2(O)[C@H]3Cc4ccc(O)c5c4[C@@]2(CCN3CC2CC2)[C@H]1O5	0.28	33	0.61	<=40%	MPE [4]: 40%
CN(C(=O)/C=C/c1ccco1)[C@H]1CC[C@@]2(O)[C@H]3Cc4ccc(O)c5c4[C@@]2(CCN3CC2CC2)[C@H]1O5.Cl	0.2	0.93	0.14	80%	Activity [13]: Toxic; blood plasma ratio at 0.5 h [14]: 0.633; Activity [15]: Toxic; Activity [16]: Toxic; Activity [17]: Non-Toxic; blood plasma ratio at 1 h [18]: 0.938; Activity [19]: Active; Activity [20]: inactive; Drug uptake [21]: Active; Emax [11]: 83.2%; Activity [22]: inactive; Activity [23]: inactive
Cl.O=C(/C=C/c1ccco1)N[C@@H]1CC[C@@]2(O)[C@H]3Cc4ccc(O)c5c4[C@@]2(CCN3CC2CC2)[C@H]1O5	0.3	12.8	0.17	80%	–
Cl.O=C(CCc1ccoc1)N[C@@H]1CC[C@@]2(O)[C@H]3Cc4ccc(O)c5c4[C@@]2(CCN3CC2CC2)[C@H]1O5	0.21	–	–	<=40%	–
Cl.O=C(/C=C/c1ccco1)N[C@@H]1CC[C@@]2(O)[C@H]3Cc4cccc5c4[C@@]2(CCN3CC2CC2)[C@H]1O5	42.4	551	7.03	<=40%	Emax [11]: 81%; MPE [4]: 100%
Cl.O=C(CCc1ccoc1)N[C@H]1CC[C@@]2(O)[C@H]3Cc4ccc(O)c5c4[C@@]2(CCN3CC2CC2)[C@H]1O5	0.44	–	–	<=40%	MPE [4]: 100%
C=CCN1CC[C@]23c4c5ccc(O)c4O[C@H]2C(=O)CC[C@@]3(O)[C@H]1C5 [NALOXONE]	–	–	–	–	MPE [4]: <=40%
CN(C(=O)CCc1ccco1)[C@@H]1CC[C@@]2(O)[C@H]3Cc4cccc5c4[C@@]2(CCN3CC2CC2)[C@H]1O5.Cl	93.6	532	50.4	40%	–
Cl.O=C(CCc1ccco1)N[C@@H]1CC[C@@]2(O)[C@H]3Cc4cccc5c4[C@@]2(CCN3CC2CC2)[C@H]1O5	27.5	800	23.6	40%	–
Cl.O=C(/C=C/c1ccco1)N[C@H]1CC[C@@]2(O)[C@H]3Cc4cccc5c4[C@@]2(CCN3CC2CC2)[C@H]1O5	107	456	249	<=40%	MPE [4]: 100%; Ratio [12]: 0
CN(C(=O)/C=C/c1ccco1)[C@@H]1CC[C@@]2(O)[C@H]3Cc4cccc5c4[C@@]2(CCN3CC2CC2)[C@H]1O5.Cl	215	2260	4.11	40%	Emax [11]: 82.1%
CN(C(=O)CCc1ccco1)[C@H]1CC[C@@]2(O)[C@H]3Cc4cccc5c4[C@@]2(CCN3CC2CC2)[C@H]1O5.Cl	14.1	46.8	1	40%	–
Cl.O=C(/C=C/c1ccco1)N[C@H]1CC[C@@]2(O)[C@H]3Cc4ccc(O)c5c4[C@@]2(CCN3CC2CC2)[C@H]1O5	0.53	8.75	1.08	100%	–
CN(C(=O)/C=C/c1ccoc1)[C@@H]1CC[C@@]2(O)[C@H]3Cc4ccc(O)c5c4[C@@]2(CCN3CC2CC2)[C@H]1O5.Cl [NALFURAFINE HYDROCHLORIDE]	–	–	–	80%	EC50 [8]: 141 nM; Activity [24]: Dose-Dependent Effect; Activity [15]: Toxic; Activity [16]: Toxic; Activity [25]: Non-Toxic; Activity [26]: inactive; Kd [9]: 116 nM; Activity [20]: inactive; ED50 [10]: 0.046 mg/kg; Activity [27]: Active; Activity [22]: inactive; Activity [23]: inactive
CN(C(=O)CCc1ccoc1)[C@@H]1CC[C@@]2(O)[C@H]3Cc4ccc(O)c5c4[C@@]2(CCN3CC2CC2)[C@H]1O5.Cl	0.53	8.42	0.28	100%	–
CN(C(=O)CCc1ccoc1)[C@H]1CC[C@@]2(O)[C@H]3Cc4cccc5c4[C@@]2(CCN3CC2CC2)[C@H]1O5.Cl	7.74	48.6	0.48	80%	–
CN(C(=O)CCc1ccco1)[C@@H]1CC[C@@]2(O)[C@H]3Cc4ccc(O)c5c4[C@@]2(CCN3CC2CC2)[C@H]1O5.Cl	0.66	7.32	0.32	100%	–
CN(C(=O)CCc1ccoc1)[C@H]1CC[C@@]2(O)[C@H]3Cc4ccc(O)c5c4[C@@]2(CCN3CC2CC2)[C@H]1O5.Cl	0.18	0.59	0.13	40%	–
